# Like-named read-outs stand apart in the source and are kept apart here.
# Legend:
# THP-1 macrophages = assay: CellTiter-Glo viability assay in THP-1 macrophages; type: cell-based, human
# Description: For generating macrophages differentiation was induced by 10^-8 M Phorbol 12-myristate 13-acetate (PMA) (Sigma-Aldrich) for 48 h. Ligand treatment of macrophages was performed for further 24 h. To induce foam cell formation macrophages were treated for additional 48 h with 100 µg/mL modified human oxidized low density lipoprotein (oxLDL) obtained from Source BioScience (RP-048). Ligand treatment was performed simultaneously with foam cell formation. Cholesterol loading and treatment was controlled with Oil Red O staining (Alfa Aeser). To investigate ligand induced effects on cell proliferation of THP-1 macrophages CellTiter-Glo Luminescent Cell Viability Assay (Promega) was utilized.
# [1] = molecular target: T1, LXRβ ligand binding domain (LBD) (Homo sapiens, UniProt P55055); assay: dual luciferase reporter gene assay with LXRβ ligand binding domain in HEK-293 cells; type: cell-based
# T1 construct: expressed in transfected cells; host or cells: HEK-293
# T1 sequence (P55055 154-460 limits assumed): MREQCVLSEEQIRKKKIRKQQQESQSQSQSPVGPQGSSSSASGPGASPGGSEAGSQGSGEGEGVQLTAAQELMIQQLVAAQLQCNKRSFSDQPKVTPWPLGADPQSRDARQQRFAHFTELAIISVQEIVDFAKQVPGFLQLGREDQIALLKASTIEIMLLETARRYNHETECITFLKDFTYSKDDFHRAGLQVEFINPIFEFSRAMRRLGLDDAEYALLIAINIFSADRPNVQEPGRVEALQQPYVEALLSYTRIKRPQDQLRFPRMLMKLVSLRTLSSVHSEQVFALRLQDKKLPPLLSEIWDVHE
# Description: Selection and amplification were performed in E-coli cells. Purification of the plasmids was performed with a plasmid purification kit (Qiagen). For transfection HEK-293 cells were plated in 96-well plates (TPP) at a density of 3.5 x 10^4 cells/well for 24 h. To investigate the ligand binding on LXRα ligand binding domain, 0.04 ng of renilla luciferase coding plasmide pGL4.75 (Promega), 0.04 ng of LXRα-LBD/GAL4-DBD plasmide and 80 ng of firefly luciferase coding plasmide pGL4.31 (Promega) were used in a total volume of 200 µL for each well. In LXRβ binding assay 40 ng of LXRβ-LBD/GAL4-DBD plasmide were applied in each transfection mix. Transfection was carried out for 4 h with Lipofectamine 2000 Transfection Reagent (Invitrogen) in Opti-MEM medium (Invitrogen). Ligand treatment was performed at different concentrations for 24 h. For lysis and detection dual-luciferase reporter gene assay system (Promega) and POLARstar Omega (BMG LABTECH) were used.
# foam cells [2] = assay: Western blot of LXRα and APOE content in foam cells; type: cell-based, human; conditions: densitometry
# Description: Whole cell extracts were harvested from three biological replicates and denaturized for SDS-PAGE (NuPAGE Novex 4-12% Bis-Tris Gels). Proteins were blotted on nitrocellulose Hybond ECL membrane and incubated with strictly validated published antibodies against LXRα (Abcam, ab 41902), APOE (Abcam ab1906), and as housekeeping protein control β-Actin (Santa Cruz Biotechnology, sc-47778, C4). Secondary antibodies were HRP labeled anti-mouse and anti-rabbit (Santa Cruz Biotechnology). After detection with Western Lightning Plus-ECL solution membranes were stripped with Restore Plus Western Blot Stripping Buffer. Densitometry was performed in ImageQuant TL (GE Healthcare). This tool measures quantitatively the optical density and provides more accurate data than simple eye-observations. The calculation of log (protein of interest/ β-Actin) corrects data for loading imbalances.
# foam cells [3] = assay: siRNA-mediated LXRα/β knockdown in foam cells with qPCR; type: cell-based, human; conditions: 10 µM ligand for 24 h
# Description: Target specificity of ligand-dependent gene expression effects was investigated in siRNA-mediated LXRα and β-knockdown foam cells with subsequent qPCR or microarray analysis. Therefore, 2 x 10^5 THP-1 cells/well were differentiated in 24-well plate and induced to foam cells prior to knockdown as described above. Foam cells were transfected using TransIT-TKO transfection reagent (Mirus Bio), for combined knockdown with 15 nM LXRα Silencer Validated siRNA (Ambion, ID 5458) and 15 nM LXRβ Silencer Select Validated siRNA (Ambion, ID s14684) and with 30 nM LXRα or LXRβ for individual knockdowns, respectively. As control we used 30 nM Silencer Select Negative Control #1 (Ambion). Transfection was carried out for 48 h and followed by treatment with 10 µM ligand or vehicle control for 24 h.
# Total RNA isolation and purification was performed by using the RNeasy Mini Kit (QIAGEN) and RNase-Free DNase Set (QIAGEN). cDNA was generated by reverse transcription using the High Capacity cDNA Reverse Transcription Kit (Applied Biosystems). Gene expression was quantified using the SYBR Green PCR Master Mix (Applied Biosystems) and ABI 7900HT Fast Real Time PCR System (Applied Biosystems). In each reaction 0.8 ng/µL cDNA and 0.2 µM primers were used. Gene expression was calculated with the ΔΔCt-method. β-Actin was used for normalisation.
# foam cells [4] = assay: cholesterol content in foam cells (Amplex Red Cholesterol Assay); type: cell-based, human; conditions: 10 µM, 48 h
# Description: (§1) THP-1 monocytes were plated out into 24-well plates (Nunc) at a density of 2 x 10^5 cells/well. After differentiation and treatment cells were lysed with 100 µL lysis buffer (PBS, 0.25 M NaCl, 1% Triton X-100). Total and free cholesterol were determined using the colorimetric enzymatic Amplex Red Cholesterol Assay Kit (Invitrogen). Triglycerides were quantified by Triglyceride Assay Kit (BioVision). For normalisation protein content was determined with Pierce 660 nm Protein Assay Reagent (Thermo Scientific).
# foam cells [5] = assay: microarray genome-wide gene expression and GSEA in foam cells; type: cell-based, human; conditions: 10 µM
# Description: Microarray analyses were performed according to instructions of Illumina's TotalPrep RNA Amplification Kit followed by hybridisation on HumanHT-12 v3 or HumanHT-12 v4 Expression BeadChips (illumina). Data analysis was performed with GenomeStudio […].1 (illumina). Differential expression analysis was performed on background-subtracted data with cubic spline normalization and Benjamini-Hochberg FDR correction. […] Gene expression data were submitted in MIAME-compliant form to the NCBI Gene Expression Omnibus database (GSE39079). Bead array data were validated by quantitative real-time PCR. The Gene Distance Matrix was conducted in Euclidean space using the MeV 4.3 software tool [[…]. et al. Biotechniques (2003), 34, 374-378]. Gene Set Enrichment Analysis (GSEA) was performed as described elsewhere [Subramanian A. et al. Proc. Natl. Acad. Sci. […] Enrichment of pathways was tested using the Reactome (v3.0) and the KEGG (v3.0) database from the Molecular Signature Database (MSigDB). Heatmaps were carried out with […]. et al. BMC Bioinformatics (2012), 11, 121]. For presentation of treatment effects in the heatmap, the pathway normalized enrichment score (NES) was adjusted with the appropriate FDR as follows: adjustedNES = (1-FDR) x NES.
# macrophages = assay: triglyceride content in macrophages (Triglyceride Assay Kit); type: cell-based, human; conditions: 10 µM, 48 h
# Description: as §1
# foam cells [6] = assay: triglyceride content in foam cells (Triglyceride Assay Kit); type: cell-based, human; conditions: 10 µM, 48 h
# Description: as §1
smiles,measurement,setting,value
"C(=C\c1ccc(OCC2CO2)cc1)/c1ccccc1 (stereo not shown) [compound 1, 2-[[4-[(E)-styryl]phenoxy]-methyl]oxirane]",no cytotoxic effects / no reduction of cellular viability up to,THP-1 macrophages,up to 50 µM
same,no cytotoxic effects / no reduction of cellular viability up to,THP-1 macrophages; listed as Compound 1,up to 25 µM
same,Transcriptional activation of LXRβ,[1],does not activate the LXRβ subtype
same,protein expression levels of LXRα target genes,foam cells [2],increased protein expression levels of LXRα target genes
same,gene expression of LXRα and ABCA1 after LXRα/β knockdown,foam cells [3],higher dependency on the LXRα subtype
same,total and esterified cholesterol content,foam cells [4],significant reduction of total and esterified cholesterol content
same,Lipid metabolism processes (gene set enrichment),foam cells [5],comparably up-regulated
same,triacylglyceride biosynthesis (transcriptional regulation),foam cells [5],not regulated
same,triglyceride level,macrophages,stayed unchanged
same,triglyceride levels,foam cells [6],triglyceride levels were not increased

# Source: patent publication EP2759295A1, “Foam cell specific Liver X Receptor (LXR) alpha agonist, SIRT1 inhibitors as well as p300 inhibitors as pharmaceutically active agents” (Max-Planck-Gesellschaft zur Förderung der Wissenschaften …, priority 2013, dated 2014)
